# Experimental data from patent US12286632B2, “Rationally-designed synthetic peptide shuttle agents for delivering polypeptide cargos from an extracellular space to the cytosol and/or nucleus of a target eukaryotic cell, uses thereof, methods and kits relating to same” (Feldan Bio Inc., priority 2016, dated 2025).
# Ends that are not written are not given here.
# Tests used:
# HeLa cells [1] = assay: FITC-labeled anti-tubulin antibody transduction assay (flow cytometry, cell viability, microscopy); details: FITC-labeled anti-tubulin antibody 0.5 μM, HeLa, 1 hour; shuttle 3.5 μM
# Protocol: The delivery and microscopy protocols are described in Example 3.
# HeLa cells were cultured and tested in the protein transduction assay described in Example 3.1. […] The cells were subjected to flow cytometry analysis as described in Example 3.3.
# HeLa cells [2] = assay: Cytotoxic activity of NK92 against HeLa cells with GSK3 inhibitor; type: cell-based, Human; details: data not shown
# [3] = test system: NKG2A genomic DNA sequence; assay: T7E1 DNA cleavage assay / % INDELs after CRISPR/Cpf1-NLS delivery (NK and NK-92 cells); type: cell-based, Human; details: gene target NKG2A, CRISPR/Cpf1 1.33 μM, crRNA 2 μM, peptide 6 μM, 1 min in PBS, n=2
# Excerpt: The T7 endonuclease I (T7E1) can be used to detect on-target CRISPR/Cas genome editing events in cultured cells. As an overview, genomic DNA from target cells is amplified by PCR. The PCR products are then denatured and reannealed to allow heteroduplex formation between wild-type DNA and CRISPR/Cas-mutated DNA. T7E1, which recognizes and cleaves mismatched DNA, is used to digest the heteroduplexes. The resulting cleaved and full-length PCR products are visualized by gel electrophoresis.
# The T7E1 assay was performed with the Edit-R™ Synthetic crRNA Positive Controls (Dharmacon #U-007000-05) and the T7 Endonuclease I (NEB, Cat #M0302S). After the delivery of the CRISPR/Cas complex, cells were lysed in 100 μL of Phusion™ High-Fidelity DNA polymerase (NEB #M0530S) laboratory with additives. The cells were incubated for 15-30 minutes at 56° C., followed by deactivation for 5 minutes at 96° C. The plate was briefly centrifuged to collect the liquid at bottom of the wells. 50-μL PCR samples were set up for each sample to be analyzed. The PCR samples were heated to 95° C. for 10 minutes and then slowly (>15 minutes) cooled to room temperature. PCR product (-5 μL) was then separated on an agarose gel (2%) to confirm amplification. 15 μL of each reaction was incubated with T7E1 nuclease for 25 minutes at 37° C. […]
# in vitro [4] = details: human, HeLa cells, Cell viability (%) (±St Dev.; n = 3)
# in vitro [5] = details: human, THP-1 cells
# in vitro [6] = details: human, HeLa cells
# T cells = type: cell-based, human
# Protocol: Unless otherwise specified, T cells used herein were obtained from healthy human blood collected in heparinized tubes. T cells were isolated using a Ficoll™ technique (Ficoll-Paque™ GE or Lymphoprep™ Stem Cell Technologies). Briefly, blood was mixed with the Ficoll™ solution in conical tubes (50 mL) and centrifuged at 2280 rpm for 20 minutes. Mononuclear cells were harvested and transferred in another conical tube (50 mL) before washing with PBS and centrifugation at 1100 rpm for 10 minutes. Cells were resuspended in 5 mL of PBS containing 20% FBS. Cells were counted and then incubated in a culture medium composed by RPMI advanced (cat: 12633012 ThermoFisher), 10% FBS, 1% Penstrep (15140122 ThermoFisher), 1% L-glutamine (25030081 ThermoFisher) IL-2 30U/ml). Next, T cells were enriched with a Human T cell Enrichment Kit (StemCell #cat: 19051) by negative selection following the manufacturer instructions. The enriched T cells were validated using a specific anti-CD3 antibody (Biolegend #cat: 300438). At this step, collected cells were typically around 99% T cells. T cells were activated by adding IL-2 at 30 U/mL and the anti-CD28 antibody (ThermoFisher #cat: 16-0289-85) in complete medium for 5 days prior to experimentation. The activation of T cell expansion was then double-checked with both anti-CD25 and anti-CD137 antibodies. […]
# [7] = Plasmid DNA (pEGFP-C1) transfection by peptides (% cells with GFP signal, cell viability); details: human, HeLa cells
# in vitro [8] = assay: in vitro
# HeLa cells [9] = type: cell-based; details: peptide 5 μM; fold-increase relative to untreated calcein-loaded cells
# Excerpt: Calcein is a membrane-impermeable fluorescent molecule that is readily internalized by cells when administered to the extracellular medium. Its fluorescence is […] and calcein self-quenches at higher concentrations. Once internalized, calcein becomes sequestered at high concentrations in cell endosomes and can be visualized by fluorescence microscopy as a punctate pattern. Following endosomal leakage, calcein is released to the cell cytoplasm and this release can be visualized by fluorescence microscopy as a diffuse pattern.
# The cells were allowed to attach by incubating overnight in appropriate growth media, as described in Example 1. The next day, the media in wells was removed and replaced with 50 μL of fresh media without serum containing 62.5 μg/mL (100 μM) of calcein, except for HEK293A (250 μg/mL, 400 μM). […]
# Untreated calcein-loaded cells were used as a control to distinguish cells having a baseline of fluorescence due to endosomally-trapped calcein from cells having increased fluorescence due to release of calcein from endosomes. Fluorescence signal means (“mean counts”) were analyzed for endosomal escape quantification. In some cases, the “Mean Factor” was calculated, which corresponds to the fold-increase of the mean counts relative to control (untreated calcein-loaded cells). […] The cellular mortality was monitored with the percentage of cells in the total events scanned. […]
# HeLa cells [10] = type: cell-based, Human; details: GFP 5 μM; 5 μM of each peptide; 1 hour; data not shown
# HeLa cells [11] = assay: GFP-NLS protein transduction assay (flow cytometry: Pos cells %, viability %, relative fluorescence intensity; microscopy); details: Table 10.3b; Protocol B; HeLa; shuttle 50 μM; GFP-NLS 5 μM; 10 seconds
compound,measurement,setting,value
CC[C@H](C)[C@H](NC(=O)[C@H](CCCCN)NC(=O)[C@H](CCCCN)NC(=O)[C@H](Cc1ccccc1)NC(=O)[C@H](CC(C)C)NC(=O)[C@H](CCCCN)NC(=O)[C@H](Cc1c[nH]c2ccccc12)NC(=O)[C@@H](N)CCCCN)C(=O)NCC(=O)N[C@@H](C)C(=O)N[C@H](C(=O)N[C@@H](CC(C)C)C(=O)N[C@@H](CCCCN)C(=O)N[C@H](C(=O)N[C@@H](CC(C)C)C(=O)N[C@H](C(=O)N[C@H](C(=O)NCC(=O)N[C@@H](CCCNC(=N)N)C(=O)N[C@@H](CCC(N)=O)C(=O)N[C@H](C(=O)N[C@@H](CCCCN)C(=O)N[C@H](C(=O)N[C@@H](Cc1c[nH]c2ccccc12)C(=O)N[C@@H](Cc1ccccc1)C(=O)N[C@@H](CCC(N)=O)C(=O)N[C@@H](CC(N)=O)C(=O)N[C@@H](CCCNC(=N)N)C(=O)N[C@@H](CCCNC(=N)N)C(=O)N[C@@H](CCSC)C(=O)N[C@@H](CCCCN)C(=O)N[C@@H](Cc1c[nH]c2ccccc12)C(=O)N[C@@H](CCCCN)C(=O)N[C@@H](CCCCN)C(=O)N[C@@H](CS)C(=O)O)[C@@H](C)CC)[C@@H](C)CC)[C@@H](C)O)[C@@H](C)O)C(C)C)C(C)C [CM18-Penetratin-Cys],FIG. 19B Cell viability (%) (± St. Dev.; n = 3),HeLa cells [1],73 ± 9.5%
Cn1cc(C2=C(c3ccc(Cl)cc3Cl)C(=O)NC2=O)c2ccccc21 [SB216763],effect on cytotoxic activity of NK92,HeLa cells [2],enhances the cytotoxic activity of NK92 against HeLa cells
FSD100 (HHHHHHFLKIWSRLIKIWTQGRRKGAQAAFRHHHHHH),% INDELs,[3],16%
FSD101 (HHHHHHRFAAQAGKRRGQTWIKILRSWIKLF),% INDELs,[3],17%
HHHHHHFLKIWSRLIKIWTQGRRKGAQAAFR [FSD21],viability,in vitro [4],75.6 ± 5.99%
same,"viability at 15 s, 5 µM",in vitro [5],62.5 ± 5.16%
same,"viability at 0.5 min, 2 µM",in vitro [5],75.6 ± 6.38%
same,viability,in vitro [6],96.2 ± 1.69%
same,"viability of transduced T cells (FSC/SSC, in words)",T cells,viability of the transduced T cells was not substantially affected
HHHHHHVWKLFWTLLAAIYGRGKARQKRAKRQARG [Peptide F5D25],viability,[7],98.2 ± 1.19%
HHHHHHYARAAARQARA [Peptide 6His-PTD4],viability,[7],97.2 ± 1.34%
LLKLWSRLLKLWTQGGSGGGSGRRLKAKRAKA [FSD18],"viability at 0.25 h, 5 µM",in vitro [8]; NK cells,94.9 ± 1.63%
same,"viability at 0.5 h, 2 µM",in vitro [8]; NK cells,98.3 ± 1%
same,"viability at 1.5 h, 1 µM",in vitro [8]; NK cells,99.1 ± 0.08%
same,"viability at 0.5 h, 2 µM","in vitro [8]; human, DOHH2 cells",79.8 ± 6.18%
same,"viability at 0.5 h, 10 µM","in vitro [8]; human, DOHH2 cells",25 ± 2.66%
same,"viability at 1.5 h, 1 µM","in vitro [8]; human, DOHH2 cells",62.5 ± 6.17%
same,"viability at 0.5 h, 2 µM","in vitro [8]; human, Jurkat cells",97.4 ± 1.09%
same,"viability at 0.5 h, 10 µM","in vitro [8]; human, Jurkat cells",96.6 ± 2.46%
same,"viability at 1.5 h, 1 µM","in vitro [8]; human, Jurkat cells",98.6 ± 0.39%
same,"viability at 0.5 h, 2 µM","in vitro [8]; human, KMS-12BM cells",95.1 ± 3.56%
same,"viability at 0.5 h, 10 µM","in vitro [8]; human, KMS-12BM cells",92.7 ± 4.11%
same,"viability at 1.5 h, 1 µM","in vitro [8]; human, KMS-12BM cells",97.6 ± 1.05%
same,"viability at 0.5 h, 2 µM","in vitro [8]; human, REC-1 cells",99 ± 0.39%
same,"viability at 0.5 h, 10 µM","in vitro [8]; human, REC-1 cells",25 ± 3.17%
same,"viability at 1.5 h, 1 µM","in vitro [8]; human, REC-1 cells",96.2 ± 2.53%
same,"viability at 0.5 h, 2 µM","in vitro [8]; mouse, HT2 cells",80.7 ± 7.1%
same,"viability at 0.5 h, 10 µM","in vitro [8]; mouse, HT2 cells",63.9 ± 5.35%
same,"viability at 1.5 h, 1 µM","in vitro [8]; mouse, HT2 cells",88.3 ± 7.91%
same,viability,in vitro [4],82.4%
same,"viability at 0.5 min, 2 µM",in vitro [5],97.9 ± 1.73%
same,"viability at 1 min, 1 µM",in vitro [5],95.3 ± 3.11%
same,"viability at 1 min, 2 µM",in vitro [5],98.6 ± 0.37%
same,"viability at 0.025 h, 1 µM",in vitro [5],86.5 ± 6.27%
same,"viability of transduced T cells (FSC/SSC, in words)",T cells,viability of the transduced T cells was not substantially affected
"RQIKIWFQNRRMKWKKC [Penetratin-Cys, reference compound]",Mean Factor,HeLa cells [9],1.1
same,GFP intracellular delivery (fluorescence microscopy),HeLa cells [10],not successfully delivered intracellularly
YARAAARQARAWEAKLAKALAKALAKHLAKALAKALKACEA [PTD4-KALA],viability,[7],53.6 ± 3.91%
same,Cell viability (%) (±St. Dev.; n = 3),HeLa cells [11],91.4 ± 3.67%
"YGRKKRRQRRRC [TAT-Cys, CPD single-domain peptide with C-terminal Cys, reference compound]",Mean Factor,HeLa cells [9],1.3
same,GFP intracellular delivery (fluorescence microscopy),HeLa cells [10],not successfully delivered intracellularly
